Measured values: patent US10238631B2, “Sesquiterpene derivatives and their use in inflammation or cancer treatment” (Academia Sinica, priority 2014, dated 2019)
Where two headings read alike, the source gives them in different places.

Tests used:
A2058 (BRAF mutation) = test: MTT cell viability assay, A2058 melanoma; type: cell-based, human; conditions: Homo sapiens, A2058, 24 h
Summary of the method: (§1)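 Overnight-seeded cells (2×10^3–1×10^4/well) → compound 24–72 h → MTT, OD570; % viable = treated/vehicle ×100, vehicle 0.5% DMSO.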

[1] = tested on: SK-N-MC neuroepithelioma line; test: MTT cell viability assay, SK-N-MC; type: cell-based; conditions: Homo sapiens, 24 h
Method: (§2) Normal or cancer cells (2×10^3 to 1×10^4 cells/well) were seeded in 96-well plate for overnight and treated with different compounds for 24 h to 72 h. Cells growth were determined by MTT-based colorimetric assays according to. Viability of the test cells treated with vehicle (0.5% DMSO) only was defined as 100% viable. Survival of cells after treatment with DETDs was calculated using the following formula: viable cell number (%)=OD570 (treated cell culture)/OD570 (vehicle control)×100.
(§3) Based on toxicity results of DET and DETDs on different breast cancer and melanoma cell lines, we selected DETD-6, -32, -35 and -39, under the consideration of structure activity relationship for evaluating their suppression effect against other cancer types of cell line with indicated tumor origin in Table 5. […] The cells were treated with compounds for 24 h and then subjected to MTT assays.

[2] = tested on: HCT-116 colon cancer cell line; test: MTT cell viability assay, HCT-116; type: cell-based; conditions: Homo sapiens, 24 h
Method: as §2, §3

[3] = tested on: A498 kidney cancer cell line; test: MTT cell viability assay, A498; type: cell-based; conditions: Homo sapiens, 24 h
Method: as §2, §3

[4] = tested on: TS/A (ER+, Her2−) murine mammary cancer cells; test: MTT cell viability assay, TS/A cells; type: cell-based; conditions: Mus musculus
Summary of the method: (§4)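 Seed 2×10^3 to 1×10^4 cells/well, overnight. Treat with compounds 24 h to 72 h. Add MTT, read OD570. Express survival relative to 0.5% DMSO vehicle (100%).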

[5] = tested on: NES-SA uterus cancer cell line; test: MTT cell viability assay, NES-SA; type: cell-based; conditions: 24 h
Method: as §2, §3

[6] = tested on: MDA-MB-231 (ER−, PR−, Her2−) human breast cancer cells; test: MTT cell viability assay, MDA-MB-231 cells; type: cell-based; conditions: for IC50: Homo sapiens
Summary of the method: as §4

[7] = tested on: U-87MG brain cancer cell line; test: MTT cell viability assay, U-87MG; type: cell-based; conditions: Homo sapiens, 24 h
Method: as §2, §3

PC3 (Prostate) = test: MTT cell viability assay, PC3; type: cell-based; conditions: 24 h
Method: as §2, §3

B16-F10 (NRAS mutation) = test: MTT cell viability assay, B16-F10 melanoma; type: cell-based; conditions: Mus musculus, B16-F10, 24 h
Summary of the method: as §1

[8] = tested on: Melanocyte (Normal cells); test: MTT cell viability assay, normal melanocytes; type: cell-based, human; conditions: Homo sapiens, Melanocyte, 24 h
Summary of the method: as §1

A375 (BRAF mutation) = test: MTT cell viability assay, A375 melanoma; type: cell-based, human; conditions: Homo sapiens, A-375, 24 h, 24 h, MTT; read-out: IC50 on cell viability, A375 (BRAF mutation)
Summary of the method: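 A375 cells were seeded at 2×10^3 to 1×10^4 per well overnight and then exposed to compounds for 24 h to 72 h. Viability was measured by MTT absorbance at OD570 relative to 0.5% DMSO vehicle (100%), and IC50 was derived from it. Combination with PLX4032 was scored by combination index.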

U937 lymphoma line = test: MTT cell viability assay, U937; type: cell-based; conditions: Homo sapiens, U-937, 24 h
Method: as §2, §3

[9] = tested on: RAW264.7 (normal macrophage); test: MTT cell viability assay, RAW264.7 macrophages; type: cell-based, mouse; conditions: Mus musculus, RAW264.7, 24 h
Summary of the method: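 RAW264.7 macrophages (2×10^5 cells/well) pretreated with compounds 1 h, then incubated 24 h with or without 100 ng/μL LPS. Viability by MTT colorimetric assay run in parallel with Griess nitrite measurement.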

[10] = tested on: PC6 lung cancer cell line; test: MTT cell viability assay, PC6; type: cell-based; conditions: 24 h
Method: as §2, §3

[11] = tested on: KATO III stomach cancer cell line; test: MTT cell viability assay, KATO III; type: cell-based; conditions: Homo sapiens, 24 h
Method: as §2, §3

[12] = tested on: M10 normal mammary epithelial cells; test: MTT cell viability assay, M10 normal cells; type: cell-based, human; conditions: 24 h; for IC50: Homo sapiens, Epithelial cell
Summary of the method: as §4

[13] = tested on: melanoma cell lines B16-F10, MeWo, A375, A2058, HTB-68; test: MTT cell viability assay, all melanoma cell lines; type: cell-based; conditions: 24 h, read-out: IC50 values over all types of melanoma cell lines
Method: as §2
Several genes are involved in melanoma development and pathology; specifically, mutation in V-raf murine sarcoma viral oncogene homolog B1 (B-RAF) occurs approximately 50-60% and in neuroblastoma RAS viral oncogene homolog (N-RAS) occurs about 30% of malignant melanomas. A spectrum of wild-type or mutated melanoma cell lines including B16-F10, MeWo, A375, A2058, HTB-68, and melanocyte were used to study anti-melanoma cell proliferation activity of parental phytocompound DET and newly synthesized DETDs.

HTB-68 (NRAS mutation) = test: MTT cell viability assay, HTB-68 melanoma; type: cell-based, human; conditions: Homo sapiens, 24 h
Summary of the method: as §1

[14] = tested on: MCF-7 (ER+, Her2−) human breast cancer cells; test: MTT cell viability assay, MCF-7 cells; type: cell-based
Summary of the method: as §4

[15] = tested on: LPS-induced nitric oxide (NO) production in RAW 264.7 cells; test: Nitric oxide production in LPS-stimulated macrophages (Griess); type: cell-based, mouse; conditions: Mus musculus; LPS-stimulated RAW264.7, nitrite 24 h after LPS
Summary of the method: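 RAW 264.7 macrophages (2×10^5 cells/well) were pretreated with compound for 1 h and then stimulated with 100 ng/μL LPS for 24 h. NO was measured as nitrite in the medium by the Griess reaction. Viability was checked in parallel by MTT.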

[16] = tested on: MeWo (No NRAS or BRAF mutation); test: MTT cell viability assay, MeWo melanoma; type: cell-based, human; conditions: Homo sapiens, MeWo, 24 h
Summary of the method: as §1

MDA-MB-231 cell invasion = test: Boyden chamber (Matrigel) invasion assay; type: cell-based, human; conditions: 24 h
Method: (§5) To test the anti-migratory and anti-invasive effect of DET. DETD-35 and PTX. Boyden chambers assay was carried out. The lower well of the chamber (6.5 mm diameter, […]; Costar. Cambridge, Mass., USA) was added 10% fetal bovine serum (FBS) as a chemoattractant and filled with DMEM culture medium containing vehicle (DMSO, 0.05%), DET (2.5 and 4 μM). DETD-35 (1.25 and 2.5 μM), or PTX (2.5 and 4 μM). MDA-MB-231 cells were placed into the upper chamber (5×10^4 cells per insert) with the medium containing 0.1% FBS. After 24 h incubation at 37° C. in a 5% CO2 atmosphere, non-migrating cells were scraped from the upper surface of the membrane using a cotton swab, and the migrated cells remaining in the well were fixed and stained with DAPI solution (4,6-diamidino-2-phenylindole, 1 μg/ml). The migrating cells were counted in three fields at 20× original magnifications by inverted fluorescence microscopy. To test the anti-invasive effect of the compounds, 8-μm filters were pre-coating with Matrigel (30 μg per filter) and incubated at 37° C. for 2 h, then followed the protocol of migration assay descried about.

[17] = tested on: MDA-MB-231 lung metastasis; test: Lung metastasis of MDA-MB-231 cells in SCID mice; type: in vivo, mouse; conditions: post-treatment, 5 mg/kg i.p. every three days
Method: Female SCID mice (5 weeks old, average body weight 19.59±1.26 g) were assigned to 8 groups: PIX group (5 mg/kg paclitaxel), DETD-35-2 group (2 mg/kg DETD-35), DETD-35-10 group (10 mg/kg DETD-35). PTX-5+DETD-35-2 group (5 mg/kg paclitaxel and 2 mg/kg DETD-35 administration alternatively for eleven doses of paclitaxel (PTX) and ten doses of DETD-35 in total), tumor (vehicle) group (5% DMSO), and sham group (5% DMSO). Pre-DETD-35-10 group was the mice administered 10 mg/kg DETD-35 every two days for three doses before the i.v. injection of 1×10^6 MDA-MB-231 tumor cells at day 0. All other drug or compounds were administered i.p. every three days starting from day 1. At the end of experiment (day 71), the test mice were sacrificed by cervical dislocation. The lung, liver, kidney, and spleen organs were removed and recorded weights and calculated for organ index (% of organ weight/body weight). The number of tumor colonies on lungs of test mice was counted.

[18] = tested on: MDA-MB-231 cell migration; test: Boyden chamber migration assay; type: cell-based, human; conditions: 24 h
Method: as §5

[19] = 24 h, read-out: IC50 on cell viability, TS/A (ER+, Her2−)
[20] = Table 5, 24 h, read-out: IC50 viability TS/A (mouse) (Breast)
[21] = MDA-MB-231, 24 h, read-out: IC50 on cell viability, MDA-MB-231 (ER−, PR−, Her2−)
[22] = MDA-MB-231, Table 5, 24 h, read-out: IC50 viability MDA-MB-231 (Breast)
[23] = 24 h, read-out: IC50 on cell viability, B16-F10 (NRAS mutation)
[24] = Table 5, 24 h, read-out: IC50 viability B16-F10 (mouse) (Skin)
[25] = MCF7, 24 h, read-out: IC50 on cell viability, MCF-7 (ER+, Her2−)
[26] = MCF7, Table 5, 24 h, read-out: IC50 viability MCF-7 (Breast)
[27] = higher concentrations (DET 4 μM, DETD-35 2.5 μM, PTX 4 μM)
[28] = lower concentrations (DET 2.5 μM, DETD-35 1.25 μM, PTX 2.5 μM)

Row | Compound | IC50 (A2058 (BRAF mutation)) [nM] | IC50 [1] [nM] | IC50 [2] [nM] | IC50 [3] [nM] | IC50 [4, 19] [nM] | IC50 [4, 20] [nM] | IC50 [5] [nM] | IC50 [6, 21] [nM] | IC50 [6, 22] [nM] | IC50 [7] [nM] | IC50 (PC3 (Prostate)) [nM] | IC50 (B16-F10 (NRAS mutation); [23]) [nM] | IC50 (B16-F10 (NRAS mutation); [24]) [nM] | IC50 [8] [nM] | IC50 (A375 (BRAF mutation)) [nM] | IC50 (U937 lymphoma line) [nM] | IC50 [9] [nM] | IC50 [10] [nM] | IC50 [11] [nM] | IC50 [12] [nM] | further results
1 | C=C1C(=O)O[C@H]2CC3=C[C@@H](C/C(C)=C/[C@@H](OC(=O)/C=C/c4ccccc4)[C@H]12)OC3=O [DETD-6] | 3900 | 320 | 110 | 1110 | 1600 | 1800 | 420 | 4200 | 4000 | 350 | 4500 | 3900 | 3900 | > 10000 | 3300 | 180 | > 10000 | 170 | 420 | 4900 | IC50 on cell viability, M10 (normal) [12]: some toxicity; IC50 [13]: 1600 to 9900 nM; IC50 (HTB-68 (NRAS mutation)): 5700 nM; IC50 [14, 25]: 1600 nM; IC50 [14, 26]: 4800 nM; IC50 [15]: 2500 nM; IC50 [16]: 9900 nM
2 | C=C1C(=O)O[C@H]2CC3=C[C@@H](C/C(C)=C/[C@@H](OC(=O)c4ccc(OC)cc4)[C@H]12)OC3=O [DETD-32] | > 10000 | 510 | 360 | 1480 | 1900 | 1900 | 500 | 3900 | 3900 | 420 | 6200 | 4200 | 4200 | > 10000 | > 10000 | 390 | > 10000 | 470 | 820 | > 7500 | IC50 (HTB-68 (NRAS mutation)): > 10000 nM; IC50 [14, 25]: 4300 nM; IC50 [14, 26]: 4300 nM; IC50 [15]: 2600 nM; IC50 [16]: > 10000 nM
3 | CC(=O)O[C@H]1C(=O)[C@@]2(C)[C@H]([C@H](OC(=O)c3ccccc3)[C@]3(O)C[C@H](OC(=O)[C@H](O)[C@@H](NC(=O)c4ccccc4)c4ccccc4)C(C)=C1C3(C)C)[C@]1(OC(C)=O)CO[C@@H]1C[C@@H]2O [PTX, paclitaxel] |  |  |  |  |  |  |  |  |  |  |  |  |  |  |  |  |  |  |  |  | IC60 on MDA-MB-231 cells ([6]; 24 h): 23.8 nM; inhibition of cell invasion (MDA-MB-231 cell invasion; [27]): 90%; inhibition of cell invasion (MDA-MB-231 cell invasion; [28]): 85%; reduction of number of tumor foci in lungs vs tumor control [17]: 62%; reduction of cell migration vs vehicle control [18, 27]: 88%; suppression of cell migration vs vehicle control [18, 28]: 87%
